Experimental data as given in PubChem BioAssay (NCI).
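Step 1: Grow cells in 96-well plates. Step 2: Expose to compound for 48 hours at 5 concentrations. Step 3: Interpolate endpoints linearly; if unreached, use highest concentration. Here, GI50 denotes the concentration required for 50% inhibition of growth. TGI marks complete inhibition of growth.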

What was measured:
Assay in all cases: inhibition of tumour cell growth, NCI panel, 48 h
[1] = test system: RXF-631 renal
[2] = test system: SNB-78 CNS
[3] = test system: HS 578T breast
[4] = test system: MCF7 breast
[5] = test system: MDA-N

SMILES | TGI [1] | TGI [2] | GI50 [3] | TGI [3] | GI50 [4] | TGI [4] | other results
COc1ccc(OC)c(NC(=O)CCC/C(CC(=O)c2ccc(O)c(OC)c2)=N\Nc2ccc([N+](=O)[O-])cc2)c1 | > 100 µM | > 100 µM |  |  |  |  | 
COc1ccc(C2SC(C)C(=O)N2NC(=O)C(O)c2ccccc2)cc1OC (stereo not drawn) |  |  | > 100 µM | > 100 µM | > 100 µM | > 100 µM | 
O=C(NN1C(=O)CSC12CCCC2)c1[nH]c2ccc(Br)cc2c1-c1ccccc1 |  |  | 96.8 µM | > 100 µM | 37.2 µM | > 100 µM | 
COc1cc([C@H]2OC[C@H]3[C@@H]2CO[C@@H]3c2cc(OC)c3c(c2)OCO3)cc(OC)c1OC |  |  |  | > 100 µM |  | > 100 µM | TGI [5]: > 100 µM
CC1=C2C(=CC(C)(C)C2O)C(=O)C(C)(O)C12CC2 (stereo not drawn) |  | 0.226 µM |  |  |  |  | 
[N-]=[N+]=NC(CI)c1cn([C@H]2C[C@H](O)[C@@H](CO)O2)c(=O)[nH]c1=O (stereo partly drawn) |  | > 100 µM |  |  |  |  | 
C[CH2][Sn]([CH2]C)([O]C(=O)C(OC(C)=O)c1ccccc1)[O]C(=O)C(OC(C)=O)c1ccccc1 (stereo not drawn) |  |  | 40 µM | > 100 µM | 14.6 µM | 27.8 µM | GI50 [5]: 50 µM; TGI [5]: > 100 µM
COc1c(Cl)cc(NC(=S)C#N)cc1Cl | 51.3 µM | 85.9 µM |  |  |  | 92.9 µM | TGI [5]: 69.1 µM
CC1(C)[C@@H](OC(N)=O)[C@H]2O[C@H]2[C@]2(CO)[C@H]3CC[C@]4(C)[C@@H](c5ccc(=O)oc5)[C@@H](Cl)C[C@]4(O)C3=CC[C@@H]12 |  |  | 0.00524 µM | 0.0207 µM | 0.00745 µM | 0.0512 µM | 
CCc1cccc(C)c1NC(=O)C(=O)Cc1nc2ccccc2s1 | > 100 µM | > 100 µM |  |  |  |  | 
C=C1C(=O)OC2C1C(OC(=O)/C(C)=C/C)CC(O)(CCl)C1C(O)C3OC3(C)C21O (stereo not drawn) |  |  |  | > 50 µM |  | > 50 µM | TGI [5]: > 50 µM
O=C(c1ccccc1)c1cccc(C(=O)c2ccccc2)c1 |  | > 100 µM |  |  |  |  | 
CS[C@]12C(=O)C[C@@]3(C)[C@@H](CC[C@]3(O)C(=O)CO)[C@@H]1CCC1=CC(=O)CC[C@@]12C |  |  |  | > 100 µM |  | > 100 µM | TGI [5]: 69.4 µM
CCN(CC)Cc1ccc(Nc2nccc(-c3cnn4ncccc34)n2)cc1 |  |  | 0.0164 µM | 0.117 µM | 0.017 µM | 14.8 µM | 
O=c1c2ccccc2nc(-c2ccccc2)n1NC1OC(CO)C(O)C(O)C1O (stereo not drawn) | > 100 µM | > 100 µM |  |  |  |  | 
Clc1nc(Cl)c2ncn(C/C=C/COc3cccc(OC/C=C/Cn4cnc5c(Cl)nc(Cl)nc54)c3)c2n1 |  |  | 39.4 µM | > 100 µM | 73.5 µM | > 100 µM | 
C=C1C(=O)OC2/C=C(/C)C(OC(C)=O)CC(O)/C(C)=C\C(OC(=O)/C(C)=C\C)C12 (stereo not drawn) |  |  |  | > 100 µM |  | > 100 µM | TGI [5]: > 100 µM
Cn1cc(C2=C(c3cccc(OCC(O)CO)c3)C(=O)NC2=O)c2ccccc21 (stereo not drawn) |  |  | > 15.2 µM | > 25 µM | > 25 µM | > 25 µM | 
C1=C2/CC[C@H](Sc3ccccc3)[C@H]2C2(CCCCC/1)OCCO2 |  | > 100 µM |  |  |  |  | 
CCOC(=O)NC(=O)c1cn(CCCCCCOC(=O)NCCCCCCNC(=O)OCCCCCCn2cc(C(=O)NC(=O)OCC)c(=O)[nH]c2=O)c(=O)[nH]c1=O | > 100 µM |  |  |  |  |  | 
O=CN/C=C/c1ccc(O)c(O)c1 | > 100 µM | > 100 µM |  |  |  |  | 

SMILES | TGI [1] | TGI [2] | GI50 [3] | TGI [3] | GI50 [4] | TGI [4] | other results
CCOC(=O)NC(=O)c1cn(CCN2CCN(c3ncnc4nc[nH]c34)CC2)c(=O)[nH]c1=O | > 100 µM |  |  |  |  |  | 
Cc1ccc(N2C(=O)C3C=CC(n4[nH]c(=O)n(Cc5ccccc5)c4=O)CC3C2=O)cc1 (stereo not drawn) |  | > 100 µM |  |  |  |  | 
C1CN(SSN2CCOCC2)CCO1 |  |  | 30.3 µM | > 100 µM | 23.3 µM | 64.4 µM | 
O=C1c2ccccc2-c2c1c1ccccc1c(=O)n2CCN1CCOCC1 |  |  | > 100 µM | > 100 µM | 43.7 µM | > 100 µM | 
Cc1cccc(C(C)C)c1NC(=O)CC1C(=O)Nc2ccccc2S1(=O)=O (stereo not drawn) | > 52.6 µM | > 79.3 µM |  |  |  |  | 
CC(C)(O)CC(=O)NCCn1ccc2ncnc(Nc3ccc(Oc4cccc(C(F)(F)F)c4)c(Cl)c3)c21 |  |  | 4.6 µM | > 10 µM | 2.98 µM | > 10 µM | 
C[C@]12CCC3[C@@H](CC[C@@H]4c5nonc5CC[C@]34C)C1C/C(=N/O)C2=O (stereo partly drawn) | > 100 µM | > 100 µM |  |  |  |  | 
COc1ccc2ccccc2c1C1OC(=O)c2ccccc21 (stereo not drawn) | > 100 µM | > 100 µM |  |  |  |  | 
COc1ccc(/C=C2\CCCC3=C2NC(N)=NC3c2ccc(OC)c(OC)c2)cc1OC (stereo not drawn) |  |  | 21.5 µM | > 100 µM | 1.89 µM | > 100 µM | 
CN(C)c1ccc2c(c1)OC(N)=C(C#N)C2c1ccc2c(c1)CCO2 (stereo not drawn) |  |  | 0.235 µM | > 100 µM | < 0.0211 µM | 32.3 µM | 
CC(C)c1cccc2sc(NC(=O)C(=O)C(C#N)c3cccc4ccccc34)nc12 (stereo not drawn) | > 100 µM | > 100 µM |  |  |  |  | 
O=C(COc1ccc(/C=C2\Oc3ccccc3C2=O)cc1)Nc1nc2c(s1)CCCC2 |  |  |  | 7.78 µM | 15.8 µM | > 100 µM | 
C/C(CC(=O)Nc1ccc(Cl)cc1)=N\NC(N)=S | > 100 µM | > 100 µM |  |  |  |  | 
COc1ccc(/C=N/N=C(\N)NO)c(OC)c1 |  | > 100 µM |  |  |  |  | 
O=S1(=O)OCCOS(=O)(=O)C1Cc1ccccc1 |  | > 100 µM |  |  |  |  | 
CN1c2ccccc2N(C)C23N(C)c4ccccc4N(C)C12N(C)c1ccccc1N3C (stereo not drawn) | > 100 µM |  |  |  |  |  | 
Cc1c2c(nn1C)CSCc1cc(n(C)n1)CSc1cc(c3ccccc3c1)OCCCc1c(C(=O)O)n(C)c3c-2c(Cl)ccc13 |  |  | 4.48 µM | 32.7 µM | 0.575 µM | 11.3 µM | 
COC(=O)c1cc(Cl)ccc1NC(=O)c1ccc([N+](=O)[O-])cc1 | 36.5 µM | > 100 µM |  |  |  |  | 
CCOC(=O)C(=Cc1cccnc1C)C(=O)OCC | 39.7 µM |  |  |  |  |  | 
O=C(Nc1ccc(Cl)c(Cl)c1)O/N=C\c1c(Cl)ccc([N+](=O)[O-])c1Cl |  |  | 3.35 µM | 38.7 µM | 0.404 µM | 2 µM | 
